Experimental data reported in paper PMC11002875, “Linking triphenylphosphonium cation to a bicyclic hydroquinone improves their antiplatelet effect via the regulation of mitochondrial function” (Redox Biology, 2024).
Like-named read-outs stand apart in the source and are kept apart here.

Assays:
[1] = tested on: complex I from Y. lipolytica mitochondrial membranes reconstituted into proteoliposomes; assay: Proton pumping and activity of reconstituted complex I (ACMA quench in proteoliposomes); assay type: biochemical
Method: Proton pumping and activity of reconstituted complex I. Purification of complex I from Y. lipolytica mitochondrial membranes and reconstitution of complex I into Proteoliposomes was performed as previously described. Briefly, complex I was reconstituted in proteoliposomes (Cxl), and then ACMA (9-Amino-6-Chloro-2-Methoxyacridine) was added to quantify the proton pumping activity. Fluorescence changes were monitored at 25 °C in a Fluorolog-3 spectrofluorometer (Horiba Scientific). Settings: λex = 430 nm, λem = 475, slit 5 nm, time increment 0.2 s. Proteoliposomes (15 μg protein) were diluted in 2 ml assay buffer (20 mM Mops pH 7.2, 80 mM KCl, 0.5 μM valinomycin). After starting the measurement, 0.5 μM ACMA, 70 μM decylubiquinone (DBQ), 125 μM NADH, NP4 […]/vehicle, and Carbonyl cyanide m-chlorophenyl hydrazone (CCCP) 5 μM were added after 50, 100, 150, 200 and 300 s, respectively. The measurements were done in triplicate for 5, 15, 30, 45, 60 and 100 μM NP4. The Average over the time after the addition of NADH/NP4/CCCP till the next addition was taken from each measurement. The quenching after NADH the addition was taken as the zero % value and the dequench with CCCP was set to 100%. The zero value was subtracted from the dequenching with NP4 and the max dequenching with CCCP. The DMSO negative control was measured in duplicate.

[2] = tested on: platelet-rich plasma (PRP); assay: Clot retraction; parameters: species or system Human; conditions: 10 μM; thrombin 0.5 Units/mL; 2 h
Method: Clot retraction. Blood was obtained in 3.2% citrate tubes, which were centrifuged for 12 min at 250 g to obtain platelet-rich plasma (PRP). The assay was prepared in Khan tubes by adding 750 μL of tyrodes buffer without calcium, 200 μL of PRP, and 5 μL of red blood cells; the mixture was treated with NP4 10 μM or vehicle and incubated for 10 min. A glass rod was positioned in the center of the tube (as a support for clot adhesion) and clot retraction was initiated by adding 50 μl of 10 Units/mL thrombin (final concentration 0.5 Units/mL). Photographs were recorded at 0; 15; 30; 60; 90; and 120 min time intervals. The clots formed after 2 h were weighed to quantify retraction.

Washed platelets = assay: Platelet aggregation in washed platelets (aggregometer); assay type: cell-based, Human; conditions: for IC50: Homo sapiens, Platelet
Method: Human platelet purification. The blood sample was obtained from voluntary donors (10 days without antiplatelet medication) who agreed to participate after signing informed consent (Scientific Ethics Committee of the University of Talca N° 04–2022). Briefly, blood anticoagulated with acid-citrate-dextrose (ACD) was obtained in a 4:1 v/v ratio. The sample was centrifuged for 12 min at 250 g to obtain platelet-rich plasma (PRP). Subsequently, the PRP was centrifuged for 8 min at 900 g to obtain the platelet pellet. The plasma supernatant was removed, and the platelets were resuspended in Tyrodes buffer without calcium plus ACD in a ratio of 5:1 v/v. The platelets were centrifuged once more for 8 min at 900 g and the pellet was resuspended in Tyrodes buffer without calcium. Finally, the platelets were counted (Mindray BC-3000 Plus hematology counter, Japan), adjusted to the desired concentration, and used within 3 h.
Platelet aggregation. Washed platelets (200-250 × 10^6 platelets/mL) were preincubated with 2 mM CaCl2 and then with the compounds under study for 5 min at 37 °C in the aggregometer (Agg RAM- Helena Biosciences). Aggregation was initiated with the agonists: collagen 2 μg/mL; convulxin 20 ng/mL; TRAP-6 (Thrombin receptor activator peptide 6) 5 μM; PMA (Phorbol myristate acetate) 100 nM or arachidonic acid 250 μg/mL. The aggregation curve was evaluated for 5 min at 37 °C in shaking at 1000 rpm.

With Cc1c(C)c(O)c2c(c1O)C(=O)C(CCCC[P+](c1ccccc1)(c1ccccc1)c1ccccc1)=CC2(C)C.[Br-] [NP4, (4-(5,8-dihydroxy-4,4,6,7-tetramethyl-1-oxo-1,4-dihydronaphthalen-2-yl)butyl)triphenyl phosphonium bromide] the IC50 ([1]; ACMA dequench relative to CCCP (100%), 5-100 μM NP4) was 37.7 ± 1.14 µM, the “Concentrations that decouple complex I in liposomes” value ([1]; ACMA fluorescence, proteoliposomes) was 30 to 60 µM and the “Clot retraction (clot weight)” value [2] was “does not significantly alter”. It also gave an IC50 (Washed platelets; read-out: IC50 for platelet aggregation, Convulxin) of 4.45 ± 0.65 µM, an IC50 (Washed platelets; PMA 100 nM, washed platelets, read-out: IC50 for platelet aggregation, PMA) of over 20 µM and an IC50 (Washed platelets; TRAP-6 5 μM, washed platelets, read-out: IC50 for platelet aggregation, TRAP-6) of 7.4 ± 0.82 µM. For the same molecule, the IC50 (Washed platelets; arachidonic acid 250 μg/mL, washed platelets, read-out: IC50 for platelet aggregation, Arachidonic Acid) was over 20 µM, the IC50 (Washed platelets; collagen 2 μg/mL, washed platelets, read-out: IC50 for platelet aggregation, Collagen) was 2.62 ± 0.91 µM and the “Effect on platelet aggregation vs vehicle” value (from here on “Effect … vs vehicle”) (Washed platelets; all tested concentrations, arachidonic acid 250 μg/mL) was “None of the NP4 concentrations showed any effect”. For the same molecule, the “Effect … vs vehicle” value (Washed platelets; compound 2 μM, collagen 2 μg/mL) was “significant effect”, the “Effect … vs vehicle” value (Washed platelets; compound 5 μM, Convulxin 20 ng/mL) was “had an effect” and the “Effect … vs vehicle” value (Washed platelets; compound 5 μM, TRAP-6 5 μM) was “had an effect”. For the same molecule, the “Effect … vs vehicle” value (Washed platelets; compound 5 μM, collagen 2 μg/mL) was “had an effect”, the “Effect … vs vehicle” value (Washed platelets; compound 10 μM, Convulxin 20 ng/mL) was “significantly decreases” and the “Effect … vs vehicle” value (Washed platelets; compound 10 μM, PMA 100 nM) was “significantly decreases”. The “Effect … vs vehicle” value (Washed platelets; compound 10 μM, TRAP-6 5 μM) was “significantly decreases” and the “Effect … vs vehicle” value (Washed platelets; compound 10 μM, collagen 2 μg/mL) was “significantly decreases”.
